Patent US6709830B2, “Methods for modulating the activation of a lymphocyte expressed G protein coupled receptor involved in cell proliferation, autoimmunity and inflammation” (The Regents of the University of California, priority 1997, dated 2004)

Target: T1, G2A (Mus musculus, UniProt Q9Z282)
T1 construct: expressed in transfected cells; host or cells: MCF 10A (human breast epithelial cells, no endogenous G2A), plasmid pEXV3 G2A.GFP
T1 sequence (Q9Z282 1-382): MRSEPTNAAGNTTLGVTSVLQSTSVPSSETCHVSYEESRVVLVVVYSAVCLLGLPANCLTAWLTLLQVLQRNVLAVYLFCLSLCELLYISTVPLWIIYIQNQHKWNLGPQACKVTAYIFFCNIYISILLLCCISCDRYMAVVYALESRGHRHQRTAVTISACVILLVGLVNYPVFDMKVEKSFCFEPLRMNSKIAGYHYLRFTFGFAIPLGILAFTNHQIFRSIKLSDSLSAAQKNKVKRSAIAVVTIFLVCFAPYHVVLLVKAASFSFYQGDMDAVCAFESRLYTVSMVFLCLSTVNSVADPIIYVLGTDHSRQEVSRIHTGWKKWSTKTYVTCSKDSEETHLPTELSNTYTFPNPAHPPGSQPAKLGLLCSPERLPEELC
Assay: Radioligand binding assay with cell homogenates of HEK 293 G2A.GFP cells
Details: HEK 293 G2A.GFP cell homogenate
Protocol: To characterise the binding of LPC and SPC to G2A, we performed radioligand binding assays as described previously (Xu, Y, e al, Nature Cell Biology, 2: pp261-267, 2000). [^3H] 16:0 LPC and [^3H] SPC bound to cell homogenates from G2A expressing HEK 293 cells in a time-dependent manner and reached equilibrium after 60 minutes incubation at 4° C. (FIGS. 5A and B). […] LPC and [^3H] SPC. Binding of [^3H] LPC and [^3H] […] The maximum binding capacities for LPC and SPC were approximately 1,503 fmole/10^5 cells and 1,840 fmole/10^5 cells respectively.
Binding assay HEK 293 GFP or HEK 293 G2A.GFP cells were serum starved for 20 hours and subsequently collected in PBS/EDTA. Pelleted cells were stored at −80° C. until use. Frozen cells (10^6 cells/ml) were homogenized in “binding buffer” containing 20 mM Tris-HCl pH 7.5, 100 mM NaCl, 15 mM NaF, 0.2 mM PMSF, 1 mM MgCl2 and 4 mg/ml fatty acid-free BSA in a tight-fit glass Dounce homogeniser. Assays were performed in 96-well plates in triplicate with 100 μl cell homogenate (equivalent to 10^5 cells/well). Varying amounts of [^3H] 16:0 LPC or [^3H] SPC were added to cell homogenates in 50 μl of binding buffer in the presence or absence of cold 16:0 LPC or SPC, or other competitors. Plates were incubated at 4° C. for 2 hours, or for the indicated times. Cell-bound [^3H] LPC or [^3H] SPC was collected onto a filter (Printed Filtermat A, Wallac, Gaithersburg, Md.) using an automated cell harvester (HARVESTER 96, Tomtec, Orange, Conn.). A pause wash programme (five cycle washes) was used. Filters were presoaked in 1% polyethyleneimine (Sigma) to prevent nonspecific binding, dried, sealed in bags (Sample Bag, Wallac) with 4.5 ml Betaplate “Scint” scintillation cocktail (Wallac), and counted in a 1450 Microbeta Trilux Liquid Scintillation and Luminescence Counter (Wallac). Specific binding was calculated by subtraction of nonspecific binding (binding detected in the presence of 100-fold excess unlabelled lipid) from total binding.

Kd (Scatchard analysis, saturation binding of [3H] 16:0 LPC or [3H] SPC, 4° C., read-out: dissociation constant (Kd)): 0.065 µM
maximum binding capacity (saturation binding): approximately 1,503 fmole/10^5 cells
Substance: lysophosphatidylcholine [LPC]
